From PMC5133556, “Design of a hydroxyapatite-binding antimicrobial peptide with improved retention and antibacterial efficacy for oral pathogen control” (Scientific Reports, 2016)
Values after ≈ are worked out from the molar mass of the structure shown. Residues, ends and D or L forms follow the SMILES beside them.

Legend:
[1] = system: S. mutans; assay: Time-kill assay; assay type: cell-based, Streptococcus mutans; settings: 0.12%, 10^6 CFU/mL, CFU counts
Method: The time-kill kinetics of HBAMP against S. mutans was determined by time-kill assay as previously described. S. mutans was grown to exponential phase and diluted to 10^6 CFU/mL in growth medium. […] Bacterial suspension in other tubes that were added with 0.12% CHX and PBS served as the positive and blank control groups, respectively. At time points of 0, 10, 20, 30, 40, 60, and 90 min, 10 μL of cell suspension was collected, serially diluted in PBS and then 50 μL of aliquots were plated onto BHI agar plates. Colony forming units were counted after the plates were incubated anaerobically at 37 °C for 24 h.

[2] = system: S. mutans biofilm; assay type: cell-based; settings: 250 μg/ml (2× MIC), 10 min treatment of 12 h biofilm on HAp
Method: S. mutans biofilms were grown on the surface of HAp disks that were placed in 24-well plate. Each well of the plate was inoculated with 2 ml of S. mutans in BHIS (10^6 CFU/mL). After incubation anaerobically at 37 °C for 12 h, the HAp disks were washed twice with sterile deionized water and then respectively treated with HBAMP (2× and 4× MIC) and CHX (0.12%) for 10 min. Then biofilms were stained for 20 min in the dark using the LIVE/DEAD® BacLight^TM Bacterial Viability Kit. The biofilm without treatment served as control. Stained biofilms were photographed by CLSM with a 20× objective. Three independent biofilm experiments were performed.

[3] = system: Actinomyces viscosus (ATCC 19246); assay type: cell-based; settings: ATCC 19246, 24 h
Method: (§1) Streptococcus sanguinis (ATCC 10556), Actinomyces viscosus (ATCC 19246), Streptococcus mutans (ATCC 25175), were grown in Brain Heart Infusion (BHI; Difco, Detroit, MI, USA) culture medium. Lactobacillus acidophilus (ATCC 4356) was grown in de Man, Rogosa and Sharpe (MRS; Difco, Detroit, MI, USA) culture medium. BHIS (BHI with 2% sucrose) was used for growing S. mutans biofilm. All cultures were grown anaerobically (80% N2, 10% H2 and 10% CO2) at 37 °C. According to the growth curve of bacteria, the exponentially growing cells were harvested by centrifugation and diluted in BHI or MRS to 10^6 CFU/mL based on a regression line derived from McFarland turbidity standards (Pro-Lab Diagnostics, Richmond Hill, ON, Canada).
(§2) MIC and MBC assays were conducted according to the consensus guidelines developed by the Clinical and Laboratory Standards Institute (CLSI)[24]. Two-fold serial dilutions of peptides were prepared in culture medium at a volume of 200 μl/well in 96-well plates and the final concentrations of peptides ranged from 31.25 μg/ml to 2000 μg/ml. Chlorhexidine (0.12%) and culture medium were included as the positive and control group, respectively. Then each well was seeded with 20 μL of bacterial cell suspension (10^6 CFU/mL). The plates were incubated anaerobically at 37 °C for 24 h. The MIC was defined as the lowest concentration of peptide that prevents visible growth of the bacteria tested. […] The MBC was defined as the lowest concentration of peptide resulting in no colony formation on agar plates. All determinations were made from triplicate experiments.

[4] = system: Streptococcus sanguinis (ATCC 10556); assay type: cell-based; settings: ATCC 10556, 24 h
Method: as §1, §2

[5] = system: Streptococcus mutans (ATCC 25175); assay type: cell-based; settings: ATCC 25175, 24 h
Method: as §1, §2

[6] = system: Lactobacillus acidophilus (ATCC 4356); assay type: cell-based; settings: ATCC 4356, 24 h
Method: as §1, §2

[7] = in vitro; assay type: in vitro ADME; settings: both sexes, human, cerebrospinal or other body fluid
Method: The protocols in this section were approved by the Ethics Committee of Zhongshan Hospital, Xiamen University. The methods employed were performed in accordance with the approved guidelines. After acquiring informed consent, human saliva was collected from individual volunteers (two males and two females; Minimum age: 22; maximum age: 28) in the morning prior to oral cleaning. The collected saliva samples were centrifuged at 12,000 rpm for 20 min. The supernatant was collected and filtered through the […] membrane filter to remove any debris. HBAMP was added into the human saliva to achieve the final concentration of 500 μg/ml. The saliva with HBAMP was incubated at 37 °C. At 0, 5, 20 and 60 min, 1 ml samples were taken from the total sample and served in the specific sample bottles, the machine will automatically extract samples from the bottles to detect. The samples were analysed by reversed-phase HPLC using Zorbax Eclipse XDB-C18 analytical column (150 × 4.6 mm, Agilent Technologies, Inc., Santa Clara, CA, USA) protected by a XDB-C18 guard column (4 × 4 mm). For the elution of HBAMP, a flow rate of 1.2 mL/min and a linear gradient from 88:12 to 65:35 (0.1% TFA in water: 0.1% TFA in acetonitrile) for 10 min were employed. Total run time of HPLC-UV (215 nm) analysis was 15 min and the injection volume was set at 40 μL.

| SMILES | time to kill S. mutans [1] | bacteria killed in S. mutans biofilm [2] | MBC, A. viscosus [3] | MIC, A. viscosus [3] | MBC, S. sanguinis [4] | MIC, S. sanguinis [4] | MBC, S. mutans [5] | MIC, S. mutans [5] | MBC, L. acidophilus [6] | MIC, L. acidophilus [6] | remaining at 1 h, 500 μg/ml [7] |
| --- | --- | --- | --- | --- | --- | --- | --- | --- | --- | --- | --- |
| [H]/N=C(\N/C(=N/[H])NCCCCCCNC(=N)NC(=N)Nc1ccc(Cl)cc1)Nc1ccc(Cl)cc1 [CHX, chlorhexidine] | ≤ 10 min | – | – | – | – | – | – | – | – | – | – |
| CC(C)C[C@H](NC(=O)[C@H](Cc1ccc(O)cc1)NC(=O)[C@H](Cc1c[nH]cn1)NC(=O)[C@H](CC(N)=O)NC(=O)[C@@H](N)CC(N)=O)C(=O)N1CCC[C@H]1C(=O)N[C@@H](CCCNC(=N)N)C(=O)NCC(=O)NCC(=O)NCC(=O)N[C@@H](CCCCN)C(=O)N[C@@H](CCCCN)C(=O)N[C@H](C(=O)N[C@H](C(=O)N[C@@H](Cc1ccccc1)C(=O)N[C@@H](Cc1c[nH]c2ccccc12)C(=O)N[C@H](C(=O)N[C@@H](CCCCN)C(=O)N[C@@H](Cc1ccccc1)C(=O)N[C@@H](CCCCN)C(=O)O)C(C)C)C(C)C)C(C)C [HBAMP] (H-NNHYLPRGGGKKVVFWVKFK-OH) | – | approximately 44.7% | 500 µg/mL (≈ 211 µM) | 250 µg/mL (≈ 105 µM) | 2000 µg/mL (≈ 842 µM) | 500 µg/mL (≈ 211 µM) | 250 µg/mL (≈ 105 µM) | 125 µg/mL (≈ 52.6 µM) | 250 µg/mL (≈ 105 µM) | 125 µg/mL (≈ 52.6 µM) | 80.5% |
| CC(C)[C@H](NC(=O)[C@H](Cc1c[nH]c2ccccc12)NC(=O)[C@H](Cc1ccccc1)NC(=O)[C@@H](NC(=O)[C@@H](NC(=O)[C@H](CCCCN)NC(=O)[C@@H](N)CCCCN)C(C)C)C(C)C)C(=O)N[C@@H](CCCCN)C(=O)N[C@@H](Cc1ccccc1)C(=O)N[C@@H](CCCCN)C(=O)O [KSLW, reference compound] (H-KKVVFWVKFK-OH) | – | – | 500 µg/mL (≈ 382 µM) | 125 µg/mL (≈ 95.5 µM) | 2000 µg/mL (≈ 1530 µM) | 250 µg/mL (≈ 191 µM) | 125 µg/mL (≈ 95.5 µM) | 62.5 µg/mL (≈ 47.8 µM) | 125 µg/mL (≈ 95.5 µM) | 62.5 µg/mL (≈ 47.8 µM) | – |
